Test results taken from patent US12097215B2, “Antibacterial composition and its use in treating bacterial infections” (Vector Vitale IP LLC, priority 2017, dated 2024).
Marks after values point to notes of the source that are not given here.

What was measured:
[1] = test system: P. aeruginosa ATCC 27853; assay: MIC by serial dilutions in broth (visible growth); conditions: for MIC: concentration of ^64Zne, Tables 1-5
Experimental: (§3) The minimum inhibitory concentration (MIC) and minimum bactericidal concentration (MBC) of the antibacterial composition enriched for the light isotope zinc ^64Zne was evaluated in the experiment. […] S. aureus ATCC 25923, E. coli ATCC 25922 and P. aeruginosa ATCC 27853 were used as test cultures.
(§4) The studies were carried out using the method of serial dilutions in broth. To determine sensitivity of microorganisms to the antibacterial composition, 0.5 ml of broth was placed into each tube. The number of tubes was determined based on the desired number of dilutions and was increased by one for the “negative” control (no test composition). Series of two-fold serial dilutions of the test variants of the antibacterial composition were used and concentrations ranging from 450 mcg ^64Zne/ml to 0.000107 mcg ^64Zne/ml were obtained.
(§5) Reference test strains of S. aureus ATCC 25923, E. coli ATCC 25922 and P. aeruginosa ATCC 27853 were incubated in Mueller-Hinton liquid broth at 37° C. for 24 hours. Standard bacterial suspension equivalent to 0.5 McFarland standard diluted 100-fold with the broth was used for the inoculation of the tubes after which the concentration of microorganism in it was approximately 10^6 CFU/ml.
(§6) 0.5 ml of inoculum was added to each tube containing 0.5 ml of the appropriate dilution of a solution of the ^64Zn-enriched salt of interest. […] The final concentration of the microorganism in each tube was approximately 5×10^5 CFU/ml.
(§7) The tubes were incubated at 35° C. in air for 16-20 or 20-24 hours (depending on the bacterial strain).
(§8) To determine the presence of microorganism growth the test tubes with inoculum were viewed under transmitted light. Transmitted light was measured by spectrophotometry. The growth of culture in the presence of antibacterial compositions based on ^64Zne was compared with the reference test tube (“negative” control), containing the original inoculum and stored in the refrigerator. The MIC was determined as the lowest concentration of ^64Zne that inhibits visible growth of the microorganism. Both gram-positive (S. aureus) and gram-negative bacteria (P. aeruginosa, E. coli) were used in the experiments described below.
(§9) That is, ^64Zne in the form of a salt was compared with a composition that contains zinc with a natural distribution of isotopes. […] Relevant samples containing salt of natural zinc with EDDA and natural zinc sulfate were used for the comparison.
(§10) The following commercial antibacterial medications were used for the study: azithromycin and ceftriaxone and norfloxacin. The initial concentration of 3000 mcg/ml was used for the samples of all the above compounds. […] Serial dilutions of the above antibacterial compounds were also prepared in the same way as for the antibacterial composition of the invention. The same pathogenic strains of S. aureus ATCC 25923, E. coli ATCC 25922, P. aeruginosa ATCC 27853 were used for the study.

[2] = test system: E. coli ATCC 25922; assay: MIC by serial dilutions in broth (visible growth); type: cell-based; conditions: for MIC: concentration of ^64Zne, Tables 1-5;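 on all read-outs here: broth tubes inoculated to about 5×10^5 CFU/ml, incubated at 35 °C for 16-24 h, growth judged by transmitted light versus an untreated inoculum reference tube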
Experimental: as §3, §4, §5, §6, §7, §8, §9, §10

[3] = test system: S. aureus ATCC 25923; assay: MIC by serial dilutions in broth (visible growth); type: cell-based; conditions: for MIC: concentration of ^64Zne, Tables 1-5;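 on all read-outs here: broth tubes inoculated at about 5×10^5 CFU/ml, incubated 16-24 h at 35 °C in air, growth judged by transmitted light against an unexposed refrigerated inoculum tube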
Experimental: as §3, §4, §5, §6, §7, §8, §9, §10

[4] = test system: S. aureus ATCC 25923; assay: MBC by plating tube contents on Mueller-Hinton medium; type: cell-based; conditions: Table 6
Experimental: (§1) To evaluate the bactericidal action of the antibacterial composition based on light isotope ^64Zne the minimum bactericidal concentration (MBC) was determined by plating out 0.1 ml of the contents of each tube containing the antibacterial composition on Mueller-Hinton medium. The incubation was at 37° C. for 24 h.
(§2) The MBC of the test samples was determined as the lowest concentration at which there was no growth on Mueller-Hinton agar medium.

[5] = test system: P. aeruginosa ATCC 27853; assay: as above; type: cell-based; conditions: for MBC: Table 6
Experimental: as §1, §2

[6] = test system: E. coli ATCC 25922; assay: as above; type: cell-based; conditions: Table 6
Experimental: as §1, §2

How did the MIC [1] turn out when `O=C([O-])CC(O)(CC(=O)[O-])C(=O)[O-].O=C([O-])CC(O)(CC(=O)[O-])C(=O)[O-].[Zn+2].[Zn+2].[Zn+2]` [^64Zne citrate] was run?
The MIC was 14.062 µg/mL.

What about the visible growth ([2]; ^64Zne 0.00011 mcg/ml) of the same compound?
Its visible growth is “+”.

And the visible growth ([2]; ^64Zne 0.00022 mcg/ml)?
The visible growth was “+”.

What about the visible growth ([2]; ^64Zne 0.00043 mcg/ml) of the same compound?
The visible growth was “+”.

And the visible growth ([2]; ^64Zne 0.00086 mcg/ml)?
The visible growth was “+”.

What about the visible growth ([2]; ^64Zne 0.0017 mcg/ml) of the same compound?
The visible growth was “+”.

And the visible growth ([2]; ^64Zne 0.0034 mcg/ml)?
The visible growth was “+”.

What about the visible growth ([2]; ^64Zne 0.0069 mcg/ml) of the same compound?
Its visible growth is “+”.

What about the visible growth ([2]; ^64Zne 0.014 mcg/ml) of the same compound?
The visible growth was “+”.

What about the visible growth ([2]; ^64Zne 0.027 mcg/ml) of the same compound?
Its visible growth is “−”.

What about the visible growth ([2]; ^64Zne 0.055 mcg/ml) of the same compound?
Its visible growth is “−”.

What about the visible growth ([2]; ^64Zne 0.11 mcg/ml) of the same compound?
Its visible growth is “−”.

And the visible growth ([2]; ^64Zne 0.22 mcg/ml)?
Its visible growth is “−”.

And the visible growth ([2]; ^64Zne 0.44 mcg/ml)?
Its visible growth is “−”.

What about the visible growth ([2]; ^64Zne 0.88 mcg/ml) of the same compound?
Its visible growth is “−”.

And the visible growth ([2]; ^64Zne 1.76 mcg/ml)?
Its visible growth is “−”.

And the visible growth ([2]; ^64Zne 3.52 mcg/ml)?
Its visible growth is “−”.

What about the visible growth ([2]; ^64Zne 7.03 mcg/ml) of the same compound?
Its visible growth is “−”.

What about the visible growth ([2]; ^64Zne 14.06 mcg/ml) of the same compound?
The visible growth was “−”.

What about the visible growth ([2]; ^64Zne 28.13 mcg/ml) of the same compound?
The visible growth was “−”.

What about the visible growth ([2]; ^64Zne 56.25 mcg/ml) of the same compound?
Its visible growth is “−”.

And the visible growth ([2]; ^64Zne 112.5 mcg/ml)?
Its visible growth is “−”.

And the visible growth ([2]; ^64Zne 225 mcg/ml)?
Its visible growth is “−”.

And the visible growth ([2]; ^64Zne 450 mcg/ml)?
The visible growth was “−”.

And the MIC [2]?
The MIC was 0.0275 µg/mL.

And the visible growth ([3]; ^64Zne 0.00011 mcg/ml)?
The visible growth was “+”.

And the visible growth ([3]; ^64Zne 0.00022 mcg/ml)?
The visible growth was “+”.

What about the visible growth ([3]; ^64Zne 0.00043 mcg/ml) of the same compound?
Its visible growth is “+”.

And the visible growth ([3]; ^64Zne 0.00086 mcg/ml)?
The visible growth was “+”.

What about the visible growth ([3]; ^64Zne 0.0017 mcg/ml) of the same compound?
Its visible growth is “+”.

What about the visible growth ([3]; ^64Zne 0.0034 mcg/ml) of the same compound?
The visible growth was “+”.

And the visible growth ([3]; ^64Zne 0.0069 mcg/ml)?
The visible growth was “+”.

What about the visible growth ([3]; ^64Zne 0.014 mcg/ml) of the same compound?
The visible growth was “+”.

What about the visible growth ([3]; ^64Zne 0.027 mcg/ml) of the same compound?
Its visible growth is “−”.

What about the visible growth ([3]; ^64Zne 0.055 mcg/ml) of the same compound?
Its visible growth is “−”.

And the visible growth ([3]; ^64Zne 0.11 mcg/ml)?
The visible growth was “−”.

And the visible growth ([3]; ^64Zne 0.22 mcg/ml)?
The visible growth was “−”.

And the visible growth ([3]; ^64Zne 0.44 mcg/ml)?
The visible growth was “−”.

What about the visible growth ([3]; ^64Zne 0.88 mcg/ml) of the same compound?
Its visible growth is “−”.

What about the visible growth ([3]; ^64Zne 1.76 mcg/ml) of the same compound?
The visible growth was “−”.

What about the visible growth ([3]; ^64Zne 3.52 mcg/ml) of the same compound?
Its visible growth is “−”.

What about the visible growth ([3]; ^64Zne 7.03 mcg/ml) of the same compound?
The visible growth was “−”.

And the visible growth ([3]; ^64Zne 14.06 mcg/ml)?
Its visible growth is “−”.

And the visible growth ([3]; ^64Zne 28.13 mcg/ml)?
Its visible growth is “−”.

What about the visible growth ([3]; ^64Zne 56.25 mcg/ml) of the same compound?
The visible growth was “−”.

What about the visible growth ([3]; ^64Zne 112.5 mcg/ml) of the same compound?
The visible growth was “−”.

What about the visible growth ([3]; ^64Zne 225 mcg/ml) of the same compound?
Its visible growth is “−”.

What about the MIC [3] of the same compound?
The MIC was 0.0275 µg/mL.

What about the MBC [4] of the same compound?
Its MBC is 0.028* mcg ^64Zne/ml.

What about the “bactericidal activity (in words)” value [5] of the same compound?
The value was “satisfactory bactericidal activity”.

And the MBC [5]?
Its MBC is 112.5 mcg ^64Zne/ml.

What about the MBC [6] of the same compound?
The MBC was 0.44* mcg ^64Zne/ml.

How did the “bacteriostatic activity (in words)” value [1] turn out when `NC(CCC(=O)[O-])C(=O)[O-].[64Zn+2]` (centres unmarked) [^64Zne glutamate] was run?
The value was “best results”.

What about the MIC [1] of the same compound?
The MIC was 0.183 µg/mL.

What about the visible growth ([2]; ^64Zne 0.00018 mcg/ml) of the same compound?
The visible growth was “+”.

And the visible growth ([2]; ^64Zne 0.00036 mcg/ml)?
Its visible growth is “+”.

What about the visible growth ([2]; ^64Zne 0.00072 mcg/ml) of the same compound?
Its visible growth is “+”.

What about the visible growth ([2]; ^64Zne 0.0014 mcg/ml) of the same compound?
The visible growth was “+”.

What about the visible growth ([2]; ^64Zne 0.0029 mcg/ml) of the same compound?
The visible growth was “+”.

What about the visible growth ([2]; ^64Zne 0.0057 mcg/ml) of the same compound?
Its visible growth is “−”.

And the visible growth ([2]; ^64Zne 0.011 mcg/ml)?
The visible growth was “−”.

What about the visible growth ([2]; ^64Zne 0.023 mcg/ml) of the same compound?
Its visible growth is “−”.

And the visible growth ([2]; ^64Zne 0.046 mcg/ml)?
The visible growth was “−”.

And the visible growth ([2]; ^64Zne 0.092 mcg/ml)?
The visible growth was “−”.

And the visible growth ([2]; ^64Zne 0.18 mcg/ml)?
Its visible growth is “−”.

And the visible growth ([2]; ^64Zne 0.37 mcg/ml)?
The visible growth was “−”.

And the visible growth ([2]; ^64Zne 0.73 mcg/ml)?
Its visible growth is “−”.

What about the visible growth ([2]; ^64Zne 1.46 mcg/ml) of the same compound?
The visible growth was “−”.

And the visible growth ([2]; ^64Zne 2.93 mcg/ml)?
Its visible growth is “−”.

What about the visible growth ([2]; ^64Zne 5.86 mcg/ml) of the same compound?
Its visible growth is “−”.

What about the visible growth ([2]; ^64Zne 11.72 mcg/ml) of the same compound?
The visible growth was “−”.

And the visible growth ([2]; ^64Zne 23.44 mcg/ml)?
Its visible growth is “−”.

And the visible growth ([2]; ^64Zne 46.88 mcg/ml)?
Its visible growth is “−”.

What about the visible growth ([2]; ^64Zne 93.75 mcg/ml) of the same compound?
Its visible growth is “−”.

And the visible growth ([2]; ^64Zne 187.5 mcg/ml)?
Its visible growth is “−”.

What about the visible growth ([2]; ^64Zne 375 mcg/ml) of the same compound?
Its visible growth is “−”.

What about the visible growth ([2]; ^64Zne 750 mcg/ml) of the same compound?
The visible growth was “−”.

And the MIC [2]?
Its MIC is 0.0057 µg/mL.

And the visible growth ([3]; ^64Zne 0.00018 mcg/ml)?
The visible growth was “+”.

And the visible growth ([3]; ^64Zne 0.00036 mcg/ml)?
Its visible growth is “+”.

And the visible growth ([3]; ^64Zne 0.00072 mcg/ml)?
The visible growth was “+”.

And the visible growth ([3]; ^64Zne 0.0014 mcg/ml)?
Its visible growth is “+”.

And the visible growth ([3]; ^64Zne 0.0029 mcg/ml)?
Its visible growth is “+”.

And the visible growth ([3]; ^64Zne 0.0057 mcg/ml)?
Its visible growth is “+”.

What about the visible growth ([3]; ^64Zne 0.011 mcg/ml) of the same compound?
Its visible growth is “+”.

What about the visible growth ([3]; ^64Zne 0.023 mcg/ml) of the same compound?
The visible growth was “+”.

And the visible growth ([3]; ^64Zne 0.046 mcg/ml)?
The visible growth was “−”.

What about the visible growth ([3]; ^64Zne 0.092 mcg/ml) of the same compound?
Its visible growth is “−”.

What about the visible growth ([3]; ^64Zne 0.18 mcg/ml) of the same compound?
The visible growth was “−”.

What about the visible growth ([3]; ^64Zne 0.37 mcg/ml) of the same compound?
The visible growth was “−”.

And the visible growth ([3]; ^64Zne 0.73 mcg/ml)?
Its visible growth is “−”.

What about the visible growth ([3]; ^64Zne 1.46 mcg/ml) of the same compound?
Its visible growth is “−”.

What about the visible growth ([3]; ^64Zne 2.93 mcg/ml) of the same compound?
Its visible growth is “−”.

And the visible growth ([3]; ^64Zne 5.86 mcg/ml)?
Its visible growth is “−”.

What about the visible growth ([3]; ^64Zne 11.72 mcg/ml) of the same compound?
The visible growth was “−”.

And the visible growth ([3]; ^64Zne 23.44 mcg/ml)?
The visible growth was “−”.

And the visible growth ([3]; ^64Zne 46.88 mcg/ml)?
Its visible growth is “−”.

And the visible growth ([3]; ^64Zne 93.75 mcg/ml)?
Its visible growth is “−”.

What about the visible growth ([3]; ^64Zne 187.5 mcg/ml) of the same compound?
The visible growth was “−”.

What about the visible growth ([3]; ^64Zne 375 mcg/ml) of the same compound?
Its visible growth is “−”.

And the MIC [3]?
The MIC was 0.0458 µg/mL.

And the MBC [4]?
Its MBC is 0.046* mcg ^64Zne/ml.

What about the MBC [5] of the same compound?
The MBC was greater than 750 mcg ^64Zne/ml.

And the MBC [6]?
Its MBC is 0.37* mcg ^64Zne/ml.
